Series [1] can be described thus: Identification of prototype compounds and metabolites in human plasma after oral K-601 (UPLC-QTOF/MS, EIC peak height). In kind it is in vivo. As for the experimental part:
(§1) Chromatographic separation was carried out at 25 °C on a Zorbax RRHD Eclipse Plus C18 column (2.1 × 50 mm, 1.8 μm). The mobile phase consisted of 0.1% formic acid solution (A) and ACN (B) using a gradient elution of 0–5% B at 0–6 min, 5–8% B at 6–15 min, 8–15% B at 15–20 min, 15–20% B at 20–30 min, 20–30% at 30–35 min, 30–35% at 35–45 min, 35–40% at 45–60 min. The flow rate was kept at 0.2 mL/min, and the sample volume injected was set at 5 μL. […] The parameters of operation were as follows: drying gas N2 flow rate, 10.0 L/min; temperature, 330 °C; nebulizer, 35 psig; capillary, 3000 V; skimmer, 60 V; OCT RFV, 250 V. Each sample was analyzed in both the positive and negative modes due to the selective sensitivities to different components of the formulation-providing better information for molecular formulae and structural identification. Mass spectra were recorded across the range m/z 100–1000 with accurate mass measurements.
A total of six healthy male volunteers, ages ranging from 22–47 years took part in this study. Three of whom are Africans and three Chinese. […] None was also on any medication.
Blood samples were withdrawn from subjects at the following time intervals, 0 hour (before taking medication and breakfast), 1, 2, 4, and 6 hours after taking the medication. These blood samples were taken by a qualified phlebotomist in the hospital. Each volunteer took 40 mL of same batch of the medication as a single dose. […] Details of subjects in the pharmacokinetic studies are provided (Table 5).
(§2) All blood samples taken at each time were immediately centrifuged at 13000 rpm for 10 min, and the plasma separated and stored at −80 °C until analysis. Plasma samples were thawed at 37 °C before solid-phase extraction (SPE) treatment for UPLC-QTOF/MS analysis. The sample treatment procedure is schematically presented in Supplementary Figure S3.

Series [2] can be described thus: Pharmacokinetics of major prototype compounds in healthy Chinese and African volunteers after single oral K-601 (EIC peak area vs time). In kind it is in vivo, human. The settings on record: single oral 40 mL K-601; for Tmax: male, human, plasma, po, 40 mL. As for the experimental part: A total of six healthy male volunteers, ages ranging from 22–47 years took part in this study. Three of whom are Africans and three Chinese. All volunteers avoided the intake of alcohol/alcoholic beverages, coffee/beverages containing coffee for at least 12 hours prior to the study. None was also on any medication. All volunteers also fasted for 12 hours prior to the study and throughout the study period.
Blood samples were withdrawn from subjects at the following time intervals, 0 hour (before taking medication and breakfast), 1, 2, 4, and 6 hours after taking the medication. These blood samples were taken by a qualified phlebotomist in the hospital. Each volunteer took 40 mL of same batch of the medication as a single dose. This study was approved by the Ethics Committee of the First Affiliated Hospital of Nanjing Medical University (2013-SRFA-078) and conducted under the guidelines of the Helsinki Declaration and the International Conference on Harmonization-Good Clinical Practices (ICH-GCP). Details of subjects in the pharmacokinetic studies are provided (Table 5).
as §2
Pharmacokinetic analyses were done using the extracted ion chromatograms (EIC) of the most abundant compounds. The peak areas of derived from the EIC were plotted against time (h).

The test system of the next series is human intestinal flora. The series is described as follows: Biotransformation and metabolism of K-601 by human fecal flora (anaerobic incubation). In kind it is in vitro ADME. As for the experimental part:
as §1

Where [3] appears, read: human plasma after single oral 40 mL K-601, prototype compounds.
The mark [4] stands for this setting: human plasma after administration of K-601, metabolites.

What is called Tmax is the time from dosing to the highest level.

Regarding `COc1cc2c(cc1OC)[C@@H]1Cc3ccc(OC)c(OC)c3CN1CC2` [P2, Tetrahydropalmatine], the “Abund. (peak height in the EIC) of prototype compound in plasma” value in series [1] (setting [3]) is on record as 0.03 ×10^4.
In the case of `COc1cc2c(cc1OC)-c1cc3ccc(OC)c(OC)c3c[n+]1CC2` [P4, Palmatine], in series [1] (setting [3]), the “Abund. (peak height in the EIC) of prototype compound in plasma” value is listed as 12.63 ×10^4 and the “Peak abundance (class) of prototype compound in plasma” value is listed as “High (> 1.00 × 10^4, defined as major constituent, thus high-level)”. In series [2] (African volunteers), the Tmax is 4 h. In series [2] (Chinese volunteers), the time of peak concentration (Tmax) amounted to 1 h. In series [2], the “AUC comparison African vs Chinese volunteers (in words)” value is “higher”.
Regarding `Cc1cc(O)c2c(c1)C(=O)c1cc(O)cc(O)c1C2=O` [P12, Emodin], in series [1] (setting [3]), the “Abund. (peak height in the EIC) of prototype compound in plasma” value is 0.04 ×10^4.
With `O=C1c2cccc(O)c2C(=O)c2c(O)cc(O)cc21` [M10], in series [1] (setting [4]), the “Abund. (peak height in the EIC) of metabolite in plasma” value is 0.02 ×10^4 and the “Peak abundance (class) of metabolite in plasma” value is “Low (<0.10 × 10^4 as trace constituent, thus low-level)”.
Caffeoyl-CH2-O-quinic acid [P9]: the “Abund. (peak height in the EIC) of prototype compound in plasma” value in series [1] (setting [3]) was 0.03 ×10^4.
On the same count and under the same terms, in the case of `O=c1c(O[C@@H]2O[C@H](CO)[C@H](O)[C@H](O)[C@H]2O)c(-c2ccc(O)c(O)c2)oc2cc(O)cc(O)c12` [P10, Hyperoside] it was 0.05 ×10^4.
For `COc1cc2c(cc1O)CC[n+]1cc3c(OC)c(OC)ccc3cc1-2` [P3, Jatrorrhizine], the “Abund. (peak height in the EIC) of prototype compound in plasma” value in series [1] (male, human, in vivo, po) is listed as 3.53 ×10^4. In addition, the time of peak concentration (Tmax) in series [2] (African volunteers) worked out at 4 h; in series [2] (Chinese volunteers), 1 h. Besides, the “AUC comparison African vs Chinese volunteers (in words)” value in series [2] is “higher”.
As to `C=C[C@H]1[C@H](O[C@@H]2O[C@H](CO)[C@@H](O)[C@H](O)[C@H]2O)OC=C(C(=O)O)[C@H]1CC(=O)O` [P6, Secologanoside], the “Abund. (peak height in the EIC) of prototype compound in plasma” value in series [1] (in vivo, po) is recorded as 0.02 ×10^4.
On the same count and under the same terms, in the case of 4-O-caffeoylquinic acid [P8] it was 0.04 ×10^4.
With `O=C(O)c1cc(O)c(O)c(O)c1O` [T1], the “Abund. (peak height in the EIC) of metabolite from human intestinal transformation” value with human intestinal flora was 0.05 ×10^4.
With `O=C(O)c1cc(O)c2c(c1)C(=O)c1cccc(O)c1C2=O` [P14, Rhein], in series [1] (setting [3]), the “Abund. (peak height in the EIC) of prototype compound in plasma” value is 0.62 ×10^4.
Take `O=C(/C=C/c1ccc(O)c(O)c1)O[C@@H]1C[C@](O)(C(=O)O)C[C@@H](O)[C@H]1O` [P7, Chlorogenic acid]: the “Abund. (peak height in the EIC) of prototype compound in plasma” value in series [1] (setting [3]) is recorded as 0.03 ×10^4.
Consider `COc1ccc2cc3[n+](cc2c1OC)CCc1cc2c(cc1-3)OCO2` [P5, Berberine], for which, in series [1] (setting [3]), the “Abund. (peak height in the EIC) of prototype compound in plasma” value was 50.35 ×10^4. Also, the “Peak abundance (class) of prototype compound in plasma” value in series [1] (setting [3]) is recorded as “High (> 1.00 × 10^4, defined as major constituent, thus high-level)”. The figures for the time of peak concentration (Tmax) in series [2] (African volunteers) and in series [2] (Chinese volunteers) were 4 h and 1 h, respectively. Moreover, the “AUC comparison African vs Chinese volunteers (in words)” value in series [2] was “higher”.
Turning to `Cc1cc(O)c2c(c1)C(=O)c1cc(C(=O)O)cc(O)c1C2=O` [P15, 6-Methyl-rhein], the “Abund. (peak height in the EIC) of prototype compound in plasma” value in series [1] (in vivo, po) is 0.06 ×10^4.
For the molecule `COc1c(O[C@@H]2O[C@H](C(=O)O)[C@@H](O)[C@H](O)[C@H]2O)cc(O)c2c(=O)cc(-c3ccccc3)oc12` [P13, Wogonoside], the “Abund. (peak height in the EIC) of prototype compound in plasma” value in series [1] (setting [3]) is 0.42 ×10^4.
Take `COc1ccc2c(c1O)-c1c(O)c(OC)cc3c1[C@H](C2)[N+](C)(C)CC3` [P1, Magnoflorine]: in series [1] (male, human, in vivo, po), the “Abund. (peak height in the EIC) of prototype compound in plasma” value is reported as 6.52 ×10^4. For the same molecule, in series [2], the “AUC comparison African vs Chinese volunteers (in words)” value is reported as “better in the Chinese volunteers”.

The values are drawn from article PMC4534804, “Pharmacokinetics of a multicomponent herbal preparation in healthy Chinese and African volunteers” (Scientific Reports, 2015).
